The values below come from patent US4254123A, “Novel imidazoquinoxalines” (Roussel Uclaf, priority 1978, dated 1981).

Like-named read-outs stand apart in the source and are kept apart here.

The test system of this assay is Passive cutaneous anaphylaxis. The assay can be described thus: Passive cutaneous anaphylaxis (PCA) in rats. Type of assay: in vivo. The note with it: dosed immediately prior to i.v. antigen/Evans blue challenge, blueing scored after 30 minutes; for ED50: Rattus norvegicus, 0.5 h. As for the experimental part: Cutaneous anaphylaxis can be induced in rats by intradermal (ID) sensitization with antiserum followed three days later by systemic challenge with antigen. Evans blue dye injected with the antigen is used as a marker to assess the severity of the local response. Anti-allergic drugs inhibit this reaction. […] Brown: Pergamon Press:-male rats weighing 180-220 grams are used in groups of seven.
1. Wash 120 grams of Al(OH)3 gel in 140 ml of saline (use of a macerater facilitates mixing).
2. Centrifuge at 3,000 r.p.m. for about 10 minutes.
3. Resuspend the precipitate with 300 ml of albumen egg powder (1.3 mg/ml) in saline and allow to stand for 30 minutes.
4. Centrifuge at 3,000 r.p.m. for 10 minutes.
5. Weigh the wet precipitate and to each gram weight add 1 ml of saline. Store in refrigerator (Quantity sufficient for 60 rats for a 3 day sensitization program).
1 ml of the alum precipitated ovalbumen was injected subcutaneously into rats weighing 180-200 grams on days 0,2,4. The rats were bled on day 14 either by cardiac puncture of via the dorsal abdominal aorta. Equal quantities of serum from each animal were pooled and thoroughly mixed and 2 ml aliquots were stored at -20° C. in plastic tubes.
(A) SENSITIZATION: The rats were anaesthetized with Nembutal (40-60 mg/kg i.p.) and were then sensitized by four ID injections (0.1 ml each) on their shaved backs. The animals were then left for a period of three days to develop sensitization.
The injections were speeded up by using an automatic 1 ml self-filling glass syringe. The "challenged" rats were killed after 30 minutes, (usually pithed) and their skin on the dorsal surface was removed. The degree and area of blueing, proportional to the anaphylactic reaction was assessed on a four point scoring system.
1. Total scores for sites 1,2,3 and 4=X
2. Mean value of X for each group=X
3. X t=X for test group; X c=X for control group [formula]

Setting [1] is: intravenous, read-out: ED 50 (dose of drug giving 50% inhibition), intravenously.

For “7- and 8-chloro-imidazo-[1,2-a]-quinoxaline-2-carboxylic acid [Example 4]”, the “ED 50 (dose of drug giving 50% inhibition), intravenously” value (intravenous) is reported as 0.12 mg/kg. The “ED 50 (dose of drug giving 50% inhibition), orally” value (oral) turned out to be 0.71 mg/kg.
Take `O=C(O)c1cn2c(cnc3ccccc32)n1` [Example 1, Imidazo-[1,2-a]-quinoxaline-2-carboxylic acid]: the ED50 is, setting by setting: under setting [1], 0.073 mg/kg; (oral, read-out: ED 50 (dose of drug giving 50% inhibition), orally) 0.73 mg/kg.
Turning to `O=C(O)c1cn2c(cnc3cc(Cl)c(Cl)cc32)n1` [Example 3, 7,8-dichloro-imidazo-[1,2-a]-quinoxaline-2-carboxylic acid], the ED50 under setting [1] stood at 0.2 mg/kg.
Consider `CCOc1nc2ccccc2n2cc(C(=O)O)nc12` [Example 5, 4-ethoxy-imidazo-[1,2-a]-quinoxaline-2-carboxylic acid], for which the ED50 under setting [1] stood at 0.83 mg/kg.
On the same count and under the same terms, the value for `NC(=O)c1nc2ccccc2n2cc(C(=O)O)nc12` [Example 6, 4-carbamoyl-imidazo-[1,2-a]-quinoxaline-2-carboxylic acid] was 3.13 mg/kg.
